Measurements as given in ChEMBL document CHEMBL1201862, “PubChem BioAssay data set” (2004).
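1) Cells in 96-well plates. 2) Compound, 48 h, 5 concentrations. 3) Linear interpolation between surrounding doses. 4) Unreached endpoint = highest concentration. At the GI50, growth is halved.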 The source made the active and inactive calls. Cut-off read from the data, not from the text of the source: active = GI50 up to about 1.1 µM and inactive = higher.

Columns and labels:
Test in all cases: DTP human tumour cell line panel, 48 h
786-0 = system: 786-0
CAKI-1 = system: CAKI-1
Malme-3M = system: Malme-3M
SK-MEL-28 = system: SK-MEL-28
SNB-19 = system: SNB-19
SN12C = system: SN12C
EKVX = system: EKVX
K562 = system: K562
NCI-H460 = system: NCI-H460
HL-60 = system: HL-60
COLO 205 = system: COLO 205
OVCAR-8 = system: OVCAR-8
CCRF-CEM = system: CCRF-CEM
A498 = system: A498
A549 = system: A549
SF-268 = system: SF-268
SK-OV-3 = system: SK-OV-3

Measured: GI50

COc1ccc(NC(=O)CC(=O)N2N=C(N(CCC#N)c3ccccc3Cl)CC2c2ccccc2)cc1 (stereo not drawn)
inactive: 786-0 > 100 µM | CAKI-1 > 100 µM | Malme-3M > 100 µM | SK-MEL-28 > 100 µM | SNB-19 > 100 µM | SN12C > 100 µM | EKVX > 100 µM | K562 > 100 µM | NCI-H460 > 100 µM | HL-60 > 100 µM | COLO 205 > 100 µM | OVCAR-8 > 100 µM | CCRF-CEM > 100 µM | A498 > 100 µM | A549 > 100 µM | SF-268 > 100 µM

NC(=S)N1N=C2CCCCCC[C@@H]2[C@H]1c1ccccc1
inactive: 786-0 67 µM | CAKI-1 > 100 µM | Malme-3M 59.3 µM | SK-MEL-28 89.7 µM | SNB-19 63.1 µM | SN12C 86.1 µM | EKVX 27.7 µM | K562 32.8 µM | SK-OV-3 > 100 µM | NCI-H460 35.2 µM | HL-60 19.2 µM | COLO 205 46.7 µM | OVCAR-8 44.5 µM | CCRF-CEM 31.3 µM | A498 75 µM | A549 24.4 µM | SF-268 > 100 µM

O=C(c1nc2ccc(Cl)cc2[nH]c1=O)C(O)c1cccc([N+](=O)[O-])c1 (stereo not drawn)
inactive: 786-0 > 100 µM | CAKI-1 > 100 µM | Malme-3M > 100 µM | SK-MEL-28 26.7 µM | SNB-19 > 100 µM | SN12C > 100 µM | EKVX > 100 µM | K562 28.6 µM | SK-OV-3 > 100 µM | NCI-H460 > 100 µM | HL-60 19.8 µM | COLO 205 > 100 µM | OVCAR-8 > 100 µM | CCRF-CEM 5.06 µM | A498 > 100 µM | A549 > 100 µM | SF-268 33.3 µM

O=C1C=C(c2[nH]c3ccccc3c2C2=CC(=O)c3ccccc3C2=O)C(=O)c2ccccc21
inactive: 786-0 > 100 µM | SK-MEL-28 57 µM | SNB-19 70.1 µM | EKVX 46.5 µM | K562 22.3 µM | SK-OV-3 54.1 µM | NCI-H460 35.6 µM | HL-60 21.8 µM | COLO 205 > 100 µM | OVCAR-8 43.8 µM | CCRF-CEM 16.8 µM | A498 > 100 µM | A549 65.3 µM | SF-268 34.4 µM

N#CC1CCCCCCCCCCC(=O)N(CCCl)C1=O (stereo not drawn)
inactive: 786-0 > 100 µM | CAKI-1 > 100 µM | Malme-3M > 100 µM | SK-MEL-28 > 100 µM | SNB-19 > 100 µM | SN12C > 100 µM | EKVX > 100 µM | K562 > 100 µM | SK-OV-3 > 100 µM | NCI-H460 > 100 µM | HL-60 > 100 µM | COLO 205 > 100 µM | OVCAR-8 > 100 µM | CCRF-CEM > 100 µM | A498 > 100 µM | A549 > 100 µM | SF-268 > 100 µM

Cc1cc(Cl)ccc1NC(=O)C1C(=O)N(c2ccc(Cl)cc2C)C(=O)/C1=N\NC(N)=S (stereo not drawn)
inactive: 786-0 32.6 µM | Malme-3M 18.7 µM | SK-MEL-28 > 10 µM | SNB-19 37.3 µM | SN12C 27.4 µM | EKVX 22.6 µM | K562 23.6 µM | NCI-H460 31.6 µM | HL-60 20.1 µM | COLO 205 32.1 µM | OVCAR-8 41.9 µM | CCRF-CEM 22.5 µM | A498 23.6 µM | A549 35.4 µM | SF-268 35.6 µM

CC1C(c2ccccc2)N(C)C(c2ccccc2)C(C)C1(O)c1ccccc1 (stereo not drawn)
inactive: 786-0 > 100 µM | CAKI-1 > 100 µM | Malme-3M > 100 µM | SK-MEL-28 > 100 µM | SNB-19 > 100 µM | SN12C > 100 µM | EKVX > 100 µM | K562 > 100 µM | SK-OV-3 > 100 µM | NCI-H460 34.4 µM | HL-60 31.8 µM | COLO 205 20 µM | OVCAR-8 > 100 µM | CCRF-CEM > 100 µM | A498 42.3 µM | A549 99.5 µM | SF-268 > 100 µM

CCc1cccc(C)c1NC(C)=O
inactive: 786-0 > 100 µM | CAKI-1 > 100 µM | Malme-3M > 100 µM | SK-MEL-28 > 100 µM | EKVX > 100 µM | K562 > 100 µM | SK-OV-3 > 100 µM | NCI-H460 > 100 µM | HL-60 > 100 µM | OVCAR-8 > 100 µM | CCRF-CEM > 100 µM | A498 > 100 µM | A549 > 100 µM

CCCCCCCCCCCCCCCCOCC(CP(=O)([O-])OCC[n+]1ccccc1)OC (stereo not drawn)
inactive: 786-0 14 µM | CAKI-1 10.4 µM | Malme-3M 17.8 µM | SK-MEL-28 17 µM | SNB-19 10.1 µM | SN12C 11.4 µM | EKVX 16.5 µM | K562 17.1 µM | SK-OV-3 17.7 µM | HL-60 1.76 µM | COLO 205 6.46 µM | OVCAR-8 14.7 µM | CCRF-CEM 8.2 µM | A498 11.3 µM | A549 10.6 µM | SF-268 7.1 µM

C/C(CC(=O)Nc1ccc(C)cc1C)=N/N=C(N)N
inactive: 786-0 > 100 µM | Malme-3M > 100 µM | SK-MEL-28 > 100 µM | EKVX > 100 µM | K562 > 100 µM | SK-OV-3 > 100 µM | NCI-H460 > 100 µM | HL-60 > 100 µM | COLO 205 > 100 µM | OVCAR-8 > 100 µM | CCRF-CEM > 100 µM | A498 > 100 µM | A549 > 100 µM | SF-268 > 100 µM

CCC(=O)CC(=O)CCC(=O)Nc1cc(C)ccc1C
inactive: 786-0 > 100 µM | Malme-3M > 100 µM | SK-MEL-28 > 100 µM | SNB-19 > 100 µM | SN12C > 100 µM | EKVX > 100 µM | K562 > 100 µM | SK-OV-3 > 100 µM | NCI-H460 > 100 µM | HL-60 > 100 µM | OVCAR-8 > 100 µM | CCRF-CEM > 100 µM | A498 > 100 µM | A549 > 100 µM | SF-268 > 100 µM

CC(=O)NC1=C(N)C(=O)c2ccccc2C1=O
inactive: 786-0 37.7 µM | CAKI-1 > 100 µM | Malme-3M 21.3 µM | SNB-19 > 100 µM | SN12C 54.7 µM | EKVX > 100 µM | K562 57.5 µM | SK-OV-3 > 100 µM | NCI-H460 20 µM | HL-60 27.1 µM | COLO 205 30.5 µM | OVCAR-8 > 100 µM | CCRF-CEM 47.1 µM | A498 > 100 µM | A549 44.4 µM | SF-268 37.8 µM

COC(=O)c1nc(-c2ccc(Cl)c(Cl)c2)nc2ccccc12
inactive: 786-0 21.6 µM | CAKI-1 44.3 µM | Malme-3M > 100 µM | SK-MEL-28 > 59.3 µM | SNB-19 5.89 µM | SN12C > 100 µM | EKVX > 100 µM | K562 > 100 µM | SK-OV-3 9.91 µM | NCI-H460 > 34 µM | HL-60 > 100 µM | OVCAR-8 14.5 µM | CCRF-CEM > 100 µM | A498 27.4 µM | A549 34.9 µM | SF-268 6.81 µM
